Data on 2 molecules can be found in patent US12551532B2, “Long-acting amylin receptor agonists and uses thereof” (Eli Lilly and Company, priority 2021, dated 2026).

Starred links: 1 amine or outer side, 2 acyl side, 3 side chain; linkers in the order of their positions; H or OH if unused. Positions of bridges follow the written chain, without caps; N, C: chain ends. Non-standard residues stand in square brackets, D forms with d. Residues, ends and D or L forms follow the SMILES beside them. Groups on a side chain read outwards from the residue. *: point of attachment. C20 diacid = O=C(O)CCCCCCCCCCCCCCCCCCC(=O)*; γGlu = O=C(O)[C@H](CCC(=O)[*:2])N[*:1]; αMeF = C[C@](N)(Cc1ccccc1)C(=O)O; NMeD = CN[C@@H](CC(=O)O)C(=O)O; αMeL = CC(C)C[C@](C)(N)C(=O)O; Orn = NCCC[C@H](N)C(=O)O; CH2 = C([*:1])[*:2]

In series [1] the target is T1, hAMY1R (Homo sapiens, UniProt O60894+P30988).
T1 construct: expressed in transfected cells
Description: hAMY1R cAMP functional activity (HTRF). It is filed as cell-based. As to conditions: ±SE; UMUC3 cells overexpressing hAMY1R; relative EC50. In short, it runs like this: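 UMUC3 cells expressing hCTR plus transfected human RAMP1 (AMY1R) were treated with peptide in a 1:3 dilution series at 1500 cells/well for 1 h at room temperature. Intracellular cAMP was measured by HTRF after 60 min lysis-detection and converted to pmol/well against a standard curve for each run.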
In general terms: In TR-FRET formats the signal depends on donor and acceptor labels being close together.

Series [2] is described as follows: Pharmacokinetics in male cynomolgus monkeys. It is filed as in vivo. The following applies: single SC 20 nmol/kg, mean; for CL/F / Tmax / half-life: male, cynomolgus monkey, plasma; for CL/F / Tmax / AUCINF/D / Cmax/D: n = 3; for half-life: n = 3, read-out: T½ (converted). The method, then:
The pharmacokinetics of Compound II (SEQ ID NO:2), Compound IV (SEQ ID NO:4), Compound VI (SEQ ID NO:6), and Compound VIII (SEQ ID NO:8) are evaluated following a single subcutaneous administration of 20 nmol/kg to male cynomolgus monkeys. Blood samples are collected at 1, 3, 6, 12, 24, 48, 72, 120, 168, 240, 336, 408, 504 hours post SC dose. The resulting individual plasma concentrations are used to calculate pharmacokinetic parameters. Peptide plasma (K3EDTA) concentrations are determined using a qualified LC/MS method that measured the intact mass of the peptides. Each peptide and an analog as an internal standard are extracted from plasma. A high resolution Thermo Q-Exactive is used for LC/MS detection.

Series [3] relates to CD4+ T cells. The series is described as follows: T cell proliferation assay. The following applies: 7-10 donors with diverse MHC.
Description: This assay assesses the ability of tested antibodies or tested MAPPS peptides to activate CD4+ T cells by inducing cellular proliferation. CD8+ T cell depleted PBMC's are prepared and labeled with CFSE. Each sample is tested with media control, keyhole limpet haemocyanin (KLH; positive clinical benchmark control), tested antibodies, or tested MAPPS peptides. Cultures are incubated for 7 days. On day 7, samples are analyzed by flow cytometry.
Series [4] concerns the target T2, human CT receptors (Homo sapiens, UniProt P30988).
T2 construct: expressed in transfected cells
T2 sequence (P30988 25-474): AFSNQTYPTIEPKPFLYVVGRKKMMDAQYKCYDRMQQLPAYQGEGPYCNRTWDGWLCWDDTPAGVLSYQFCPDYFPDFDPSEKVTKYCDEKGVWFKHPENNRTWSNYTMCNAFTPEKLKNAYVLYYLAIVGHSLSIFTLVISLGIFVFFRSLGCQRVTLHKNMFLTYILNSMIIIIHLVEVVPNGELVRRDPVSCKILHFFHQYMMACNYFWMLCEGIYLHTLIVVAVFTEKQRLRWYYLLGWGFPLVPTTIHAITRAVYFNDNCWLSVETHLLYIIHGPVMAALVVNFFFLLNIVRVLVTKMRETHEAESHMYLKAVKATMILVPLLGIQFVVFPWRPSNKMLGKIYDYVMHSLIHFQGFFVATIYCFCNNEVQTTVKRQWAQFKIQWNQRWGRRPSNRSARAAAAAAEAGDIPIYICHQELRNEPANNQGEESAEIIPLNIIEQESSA
The series is described as follows: hCTR cAMP functional activity (HTRF). The class given is cell-based. The following applies: ±SE; UMUC3 cells overexpressing hCTR; relative EC50. In short, it runs like this:
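UM-UC-3 bladder cells stably overexpressing human CT receptor, 1200 cells/well, exposed to peptides in 1:3 dilution series for 1 h at room temperature. Intracellular cAMP measured by HTRF after 60 min lysis/detection, converted to pmol/well from a per-experiment cAMP standard curve.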

Series [5] addresses T1, hAMY1R. The series is described as follows: hAMY1R competitive radioligand binding filter assay (125I-rAMY). The following applies: ± SE; membranes of hAMY1R overexpressing cells. As for the experimental part: The equilibrium dissociation constants (Kd) for the various receptor/radioligand interactions are determined from saturation binding analysis using the same reagents and buffers as described below for compound testing.
The receptor binding affinity (Ki) of rAMY, hCT, and hAMY agonist peptides are determined from a competitive radioligand binding filter assay. The assay buffer consists of (in mM) 50 HEPES, pH 7.1, 5 MgCl2, 5 KCl, 0.2% (w/v) bacitracin, 0.003% (w/v) saponin and is used to dilute radioligand and membrane preparation. Binding reactions are carried out in 0.1 mL total reaction volume in a polystyrene 96 deep-well assay block. […] Test compounds and non-specific binding (NSB—defined as 300 nM rAMY) are added to aliquots of radioactivity buffer. […] The binding reaction is initiated by the addition of 0.05 mL of 200 μg/mL hAMY1R diluted in assay buffer to the radioactivity. Assay blocks are gently vortexed, sealed with parafilm, and incubated at RT for approximately 20 hours. […] At the end of the incubation, bound ligand is separated from free by addition of an ice cold quench buffer consisting of 100 mM NaCl, 50 mM TRIS-HCl pH 7.1 and immediately collected over the filter mat by vacuum filtration with a TomTec 96 well filter harvester using the following filter protocol (Dry time, 7; Cycle 3 repeat, 0; Wash Time, 1; Soak Time, 1; 1st Aspirate Time, 4; Wash/Aspirate Time, 7; 2nd Aspirate, 4; air pressure 2 PSI).

T1 sequence (O60894 27-148 partner, one chain of several): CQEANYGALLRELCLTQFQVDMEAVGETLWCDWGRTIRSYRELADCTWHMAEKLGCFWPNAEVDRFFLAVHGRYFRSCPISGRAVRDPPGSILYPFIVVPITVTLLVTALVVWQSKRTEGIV

The EC50 is the concentration that produces a half-maximal response. In general, CL/F refers to the apparent clearance, not corrected for the fraction that reaches the circulation. Broadly, the Tmax is the time from dosing to the highest level. The term Ki denotes a dissociation constant, usually derived from enzyme kinetics or from competition with a known ligand. With `CC[C@H](C)[C@H](NC(=O)[C@@H]1CCCN1C(=O)CNC(=O)[C@H](Cc1ccccc1)NC(=O)[C@H](CC(=O)O)N(C)C(=O)[C@H](CC(N)=O)NC(=O)[C@H](CO)NC(=O)[C@H](CO)NC(=O)[C@H](CCCNC(=N)N)NC(=O)[C@@H](NC(=O)[C@H](CC(C)C)NC(=O)[C@](C)(Cc1ccccc1)NC(=O)[C@H](CCC(=O)O)NC(=O)[C@H](C)NC(=O)[C@H](CC(C)C)NC(=O)[C@H](CCCN)NC(=O)CNC(=O)[C@@H](NC(=O)[C@H](C)NC(=O)[C@@H]1CSCSC[C@H](NC(=O)[C@@H](N)CCCCNC(=O)CC[C@H](NC(=O)CC[C@H](NC(=O)CCCCCCCCCCCCCCCCCCC(=O)O)C(=O)O)C(=O)O)C(=O)N[C@@H](CCC(=O)O)C(=O)N[C@@H]([C@@H](C)O)C(=O)N[C@@H](C)C(=O)N[C@@H]([C@@H](C)O)C(=O)N1)[C@@H](C)O)C(C)C)C(=O)N[C@@H](CC(C)C)C(=O)N1CCC[C@H]1C(=O)N1CCC[C@H]1C(=O)N[C@H](C(=O)N[C@@H](CCC(=O)O)C(=O)N[C@H](C(=O)NCC(=O)N[C@@H](CO)C(=O)N[C@@H](CC(N)=O)C(=O)N[C@H](C(=O)N[C@@H](Cc1ccc(O)cc1)C(N)=O)[C@@H](C)O)C(C)C)[C@@H](C)O` [Compound VI, KCETATCATG-Orn-LAE-αMeF-LVRSSN-NMeD-FGPILPPTEVGSNTY-NH2] (H-K([γGlu-γGlu-C20 diacid])CETATCATG[Orn]LAE[αMeF]LVRSSN[NMeD]FGPILPPTEVGSNTY-NH2; linker 2-7 via CH2), a half-maximal response in series [1] (EC50) required 0.107 ± 0.015 nM. Further, in series [2], the apparent clearance (CL/F) was 1.26 mL/h/kg, the Tmax is 40 ± 13.9 h, the half-life was 85 ± 5.8 h and the AUCINF/D came to 794 ± 27 hr * kg * nmol/L/nmol. In series [2], this molecule displayed a Cmax/D of 4.9 ± 0.7 kg * nmol/L/nmol. Moreover, in series [3], the “T Cell Proliferation Assay: protein, immunogenicity risk” value is listed as “Low Risk” and the “T Cell Proliferation Assay: protein, positive donors” value is given as “(1/9”. In series [4], this molecule yielded an EC50 of 13.2 ± 2.23 nM. For the same molecule, the affinity in series [5], expressed as Ki, was 0.0445 ± 0.0082 nM.
In series [1], `CC[C@H](C)[C@H](NC(=O)[C@@H]1CCCN1C(=O)CNC(=O)[C@H](Cc1ccccc1)NC(=O)[C@H](CC(N)=O)NC(=O)[C@H](Cc1c[nH]cn1)NC(=O)[C@H](CO)NC(=O)[C@H](CO)NC(=O)[C@H](CCCNC(=N)N)NC(=O)[C@@H](NC(=O)[C@H](CC(C)C)NC(=O)[C@H](Cc1ccccc1)NC(=O)[C@H](CCC(=O)O)NC(=O)[C@H](C)NC(=O)[C@](C)(CC(C)C)NC(=O)[C@H](CCCN)NC(=O)CNC(=O)[C@@H](NC(=O)[C@H](C)NC(=O)[C@@H]1CSCSC[C@H](NC(=O)[C@@H](N)CCCCNC(=O)CC[C@H](NC(=O)CC[C@H](NC(=O)CCCCCCCCCCCCCCCCCCC(=O)O)C(=O)O)C(=O)O)C(=O)N[C@@H](CCC(=O)O)C(=O)N[C@@H]([C@@H](C)O)C(=O)N[C@@H](C)C(=O)N[C@@H]([C@@H](C)O)C(=O)N1)[C@@H](C)O)C(C)C)C(=O)N[C@@H](CC(C)C)C(=O)N1CCC[C@H]1C(=O)N1CCC[C@H]1C(=O)N[C@H](C(=O)N[C@@H](CCC(=O)O)C(=O)N[C@H](C(=O)NCC(=O)N[C@@H](CO)C(=O)N[C@@H](CC(N)=O)C(=O)N[C@H](C(=O)N[C@@H](Cc1ccc(O)cc1)C(N)=O)[C@@H](C)O)C(C)C)[C@@H](C)O` [Compound VIII] (H-K([γGlu-γGlu-C20 diacid])CETATCATG[Orn][αMeL]AEFLVRSSHNFGPILPPTEVGSNTY-NH2; linker 2-7 via CH2) came in with a half-maximal effective concentration (EC50) of 0.107 ± 0.02 nM. In addition, in series [2], the CL/F is 1.07 mL/h/kg, the Tmax was 28 ± 18.3 h, the half-life was 62 ± 4.7 h and the AUCINF/D is 942 ± 67 hr * kg * nmol/L/nmol. The molecule further came in with a Cmax/D in series [2] of 7.2 ± 0.3 kg * nmol/L/nmol. Moreover, in series [3], the “T Cell Proliferation Assay: protein, immunogenicity risk” value is reported as “Low Risk” and the “T Cell Proliferation Assay: protein, positive donors” value is given as “(1/9”. In series [4], this molecule had a concentration giving a half-maximal response (EC50) of 9.69 ± 2.01 nM. For the same molecule, in series [5], the affinity corresponds to a Ki of 0.0435 ± 0.0072 nM.
